Assay results as given in ChEMBL document CHEMBL2202990, “(R)- and (S)-4-Amino-3-(trimethylsilyl)methylbutanoic acids ameliorate neuropathic pain without central nervous system-related side effects” (Bioorg Med Chem Lett, 2012).
The source made the active and inactive calls.

Legend:
Mus musculus [1] = experiment: Toxicity against mouse assessed as protection against pentetrazole-induced death at 45 mg/kg; type: organism-based; design: dose 45 mg/kg; settings: in vivo
Rattus norvegicus [2] = experiment: Toxicity against CD rat SNL pain model assessed as hypalgesic activity on the contralateral side of paw at 40 mg/kg, po at 90 mins relative to control; type: organism-based; design: dose 40 mg/kg, route oral; settings: in vivo, 1.5 h
Mus musculus [3] = experiment: Toxicity against mouse assessed as protection against pentetrazole-induced death at 15 mg/kg; type: organism-based; design: dose 15 mg/kg; settings: in vivo
Rattus norvegicus [4] = experiment: Antiallodynic activity in CD rat SNL pain model assessed as increase in paw withdrawal threshold at 20 mg/kg, po measured from 30 to 60 mins; type: functional, organism-based; design: dose 20 mg/kg
Rattus norvegicus [5] = experiment: Antiallodynic activity in CD rat SNL pain model assessed as increase in paw withdrawal threshold at 20 mg/kg, po measured after 90 mins; type: functional, organism-based; design: dose 20 mg/kg
Mus musculus [6] = experiment: Toxicity against mouse assessed as protection against maximal-electroshock-induced tonic seizure at 15 mg/kg; type: organism-based; design: dose 15 mg/kg; settings: in vivo
Mus musculus [7] = experiment: Toxicity against mouse assessed as protection against maximal-electroshock-induced tonic seizure at 5 mg/kg; type: organism-based; design: dose 5 mg/kg; settings: in vivo
Rattus norvegicus [8] = experiment: Toxicity against CD rat SNL pain model assessed as hypalgesic activity on the contralateral side of paw at 20 mg/kg, po at 90 mins relative to control; type: organism-based; design: dose 20 mg/kg, route oral; settings: in vivo, 1.5 h
Mus musculus [9] = experiment: Toxicity against mouse assessed as protection against maximal-electroshock-induced tonic seizure at 45 mg/kg; type: organism-based; design: dose 45 mg/kg; settings: in vivo
Mus musculus [10] = experiment: Toxicity against mouse assessed as protection against pentetrazole-induced death at 5 mg/kg; type: organism-based; design: dose 5 mg/kg; settings: in vivo
Rattus norvegicus [11] = experiment: Antiallodynic activity in CD rat SNL pain model assessed as increase in paw withdrawal threshold at 60 mg/kg, po measured up to 180 mins; type: functional, organism-based; design: dose 60 mg/kg
Rattus norvegicus [12] = experiment: Antiallodynic activity in CD rat SNL pain model assessed as increase in paw withdrawal threshold at 40 mg/kg, po measured from 30 to 180 mins; type: functional, organism-based; design: dose 40 mg/kg
Rattus norvegicus [13] = experiment: Antiallodynic activity in CD rat SNL pain model assessed as increase in paw withdrawal threshold at 20 mg/kg, po measured from 30 to 180 mins; type: functional, organism-based; design: dose 20 mg/kg
Rattus norvegicus [14] = experiment: Toxicity against rat assessed as somnolence at 30 mg/kg; type: organism-based; design: dose 30 mg/kg; settings: in vivo
Rattus norvegicus [15] = experiment: Antiallodynic activity in CD rat SNL pain model assessed as increase in paw withdrawal threshold at 20 mg/kg, po measured at 90 mins; type: functional, organism-based; design: dose 20 mg/kg

Row | SMILES | Activity (Mus musculus [1]) | Activity (Rattus norvegicus [2]) | Activity (Mus musculus [3]) | Activity (Rattus norvegicus [4]) | Activity (Rattus norvegicus [5]) | Activity (Mus musculus [6]) | Activity (Mus musculus [7]) | Activity (Rattus norvegicus [8]) | Activity (Mus musculus [9]) | Activity (Mus musculus [10]) | Activity (Rattus norvegicus [11]) | Activity (Rattus norvegicus [12]) | Activity (Rattus norvegicus [13]) | Activity (Rattus norvegicus [14]) | Activity (Rattus norvegicus [15])
1 | C[Si](C)(C)C[C@@H](CN)CC(=O)O | Non-toxic | Non-toxic | Non-toxic | Active | inactive | Non-toxic | Non-toxic | Non-toxic | Non-toxic | Non-toxic |  |  |  |  | 
2 | C[Si](C)(C)CC(CN)CC(=O)O (racemic) |  |  |  |  |  |  |  |  |  |  | Active |  |  |  | 
3 | C[Si](C)(C)C[C@H](CN)CC(=O)O | Non-toxic | Non-toxic | Non-toxic |  |  | Non-toxic | Non-toxic | Non-toxic | Non-toxic | Non-toxic |  | Active | inactive |  | 
4 | CC(C)C[C@H](CN)CC(=O)O [PREGABALIN] | Toxic |  |  |  |  | Toxic |  | Toxic | Toxic |  |  |  | Active | Toxic | Active
